Tests used:
phospho-STAT3(Tyr705) = assay: Phospho-STAT3(Tyr705) immunoblotting in ARPE-19 cells; type: cell-based, human
Procedure: (§1) ARPE-19 (CRL-2302, human retinal pigment epithelial cells, American Type Culture Collection, Manassas, Va.) cells were cultured in 1:1 mixture of Dulbecco's modified Eagle's medium and HAM F-12 nutrient mixture supplemented with 10% fetal bovine serum at 37° C., 5% CO2, and 90% relative humidity. Confluent cells (90% confluence) were used throughout the experiments. Culture materials were obtained from Gibco-BRL (Rockville, Md.). Tannic acid, AG490 and all other reagents were obtained from Sigma Chemical Co. (St. Louis, Mo.).
(§2) The source of UVB radiation was performed using the EL series of UV lamp (UVP Inc., San Gabriel, Calif., USA). One hundred percent energy emission was at wavelength 302 nm with a radiation intensity of 1.04 mW/cm^2 in a lamp and a target distance of 15 cm was measured by a UVX Digital Radiometer (UVP Inc.).
Total cell lysates were resolved by 10% sodium dodecyl sulfate-polyacryl amide gel electrophoresis, transferred to membranes and blocked, and then probed phospho-STAT3(Tyr705) and STAT3 (Cell Signaling Technology, Danvers, Mass.) antibodies. To control for protein loading, all blots were probed with GAPDH (Millipore, Billerica, Mass.) as well. The bands were detected using the enhanced chemiluminescence system (Millipore, Billerica, Mass.).

CFB mRNA = CFB mRNA expression in ARPE-19 cells by real-time RT-PCR; type: cell-based, human; settings: for UVB-induced CFB mRNA expression: 10 mJ/cm^2 UVB, 24 h, ARPE-19 cells, TA 25 μM, AG490 40 μM in 0.2% DMSO, normalized to GAPDH
Procedure: as §1, §2
The total RNA was isolated from ARPE-19 cells and cells exposed to UVB radiation (5-15 mJ/cm^2) for 24 hr using TRIzol Reagent (invitrogen). One μg of total RNA was subject to reverse transcriptase RT-PCR by using RT-PCR kit (Applied Biosystems). The primers used for detecting mRNA for IL-6 were 5′-CCTGCAAG ACCATCGACATG-3′ (forward, SEQ ID NO. 1) and 5′-[…]-3′ (reverse, SEQ ID NO. 2); CFB were 5′-[…]-3′ (forward, SEQ ID NO. 3) and 5′-[…]-3 (reverse, SEQ ID NO. 4); STAT3 were 5′-[…]-3′ (forward, SEQ ID NO. 5) and 5′-[…]-3′ (reverse, SEQ ID NO. 6); JAK2 were 5′-GCTCAGTGGCGGCATGAT-3′ (forward, SEQ ID NO. 7) and 5′-[…]-3′ (reverse, SEQ ID NO. 8); GAPDH were 5′-AACAGCGACACCCATCCTC-3′ (forward, SEQ ID NO. 9) and 5′-[…]-3′ (reverse, SEQ ID NO. 10). Real-time PCR was performed in a Gene Amp 7900® Sequence Detection System SDS (Applied Biosystems, Foster City, Calif., USA) using SYBR® Green PCR Master Mix Applied Biosystems. The relative gene expression is the comparative CT method. Each sample was normalized on the basis of its GAPDH content according to the formula 2^−ΔΔCT.

JAK/STAT signaling = settings: Samardzija et al. 2006; cited from earlier work
IL-6 = IL-6 protein production in ARPE-19 cell culture supernatants by ELISA; type: cell-based, human; settings: TA 25 μM, 10 mJ/cm^2 UVB, 24 hours, ARPE-19 cells
Procedure: as §1, §2
ARPE-19 cells were plated about 200,000 cells in a 3-cm dish and cultured for 18-24 hours. Cells were exposed to UVB radiation for 24 hours, 1 ml aliquots of cell culture supernatants were drawn off and frozen at −80° C. ELISAs were carried out with the OptEIA human IL-6 ELISA kit (BD Pharmingen) according to the manufacturer's instructions. […] Freshly diluted rIL-6 which is useful as a standard control was used to generate a standard curve on each plate analyzed. Plates were read at 450 nm using a spectrophotometric plate reader. […]

| SMILES | STAT3 phosphorylation on Tyr705 (phospho-STAT3(Tyr705); AG490 40 μM, data not shown) | UVB-induced CFB mRNA expression (CFB mRNA) | JAK/STAT signaling (JAK/STAT signaling) | retinal degeneration after bright light exposure (JAK/STAT signaling) | UVB-induced STAT3 phosphorylation on Tyr705 (phospho-STAT3(Tyr705); TA 25 μM, UVB, 24 hours, ARPE-19 (RPE) cells) | STAT3 phosphorylation without UV radiation (phospho-STAT3(Tyr705); without UV radiation) | CFB expression without UV radiation (CFB mRNA; without UV radiation) | attenuation of UVB-induced IL-6 protein production (IL-6) |
| --- | --- | --- | --- | --- | --- | --- | --- | --- |
| N#C/C(=C/c1ccc(O)c(O)c1)C(=O)NCc1ccccc1 [AG490, reference compound] | inhibit | partly attenuated | inhibit | prevent |  |  |  |  |
| O=C(OC[C@H]1O[C@@H](OC(=O)c2cc(O)c(O)c(OC(=O)c3cc(O)c(O)c(O)c3)c2)[C@H](OC(=O)c2cc(O)c(O)c(OC(=O)c3cc(O)c(O)c(O)c3)c2)[C@@H](OC(=O)c2cc(O)c(O)c(OC(=O)c3cc(O)c(O)c(O)c3)c2)[C@@H]1OC(=O)c1cc(O)c(O)c(OC(=O)c2cc(O)c(O)c(O)c2)c1)c1cc(O)c(O)c(OC(=O)c2cc(O)c(O)c(O)c2)c1 [TA, Tannic acid] |  | attenuate |  |  | substantially attenuated | reduce | reduce | approximately 40% |
